# Data: patent US8129518B2, “Synthetic polysaccharide antigens for immunological intervention in disease” (Eli Lilly and Company, priority 2004, dated 2012)
# Tests used:
# Type in all cases: cell-based
# [1] = system: human monocyte-derived iDC; assay: Uptake by immature dendritic cells, confocal microscopy; conditions: two minutes incubation at 37° C.; labeled Compound 1 50 μg/ml, FITC-dextran 1 mg/ml
# Protocol: Briefly, Oregon-green (Molecular Probes, Eugene, Oreg.)-conjugated Lipid II is included in an MtgA polymerization reaction at a ratio of 1:4 with unlabeled Lipid II to produce a 25% Oregon-green labeled polymer. The polymeric material is purified and treated as previously described. […] After incubation, extracellular probe is removed by washing the cells four times in ice cold complete DC medium (Example 5). Washed cells are then incubated at 37° C. and staining is stopped at two-minute intervals by washing in 1% paraformaldehyde fix diluted in flow wash solution (which also contains the metabolic poison sodium azide; protocol described in Example 5). Glass slide samples are prepared at each time interval and sealed with clear nail polish. Samples are stored at −20° C. and protected from light until analysis on a Radiance 2100 confocal microscope (BioRad Laboratories, Hercules, Calif.).
# [2] = system: human monocyte-derived dendritic cells; assay: Kinetics of uptake by immature dendritic cells, flow cytometry; conditions: 0° C., cells metabolically inactive
# Protocol: In these experiments, human monocyte-derived dendritic cells are prepared as described in Example 5. Dendritic cells are resuspended at 5×10^5 cells/sample and incubated on ice at […] At 0, 2, 10, 20, 30, 40, and 50 minutes after the start of incubation, uptake is stopped by washing the cells with four washes of ice cold flow wash buffer (Example 5). The washed cells are fixed in paraformaldehyde also as described in Example 5. Stained, fixed cells are stored at 4° C. protected from light until analysis using a FC500 flow cytometer (Beckman Coulter, Miami, Fla.).
# human TLR-2 = biological target: T1, human TLR-2 (Homo sapiens, UniProt O60603); conditions: 1 ng/ml, positive stimulation control
# T1 construct: expressed in transfected cells; host or cells: HEK293 cells (ATCC), transiently transfected with Fugene6
# T1 sequence (O60603 21-784): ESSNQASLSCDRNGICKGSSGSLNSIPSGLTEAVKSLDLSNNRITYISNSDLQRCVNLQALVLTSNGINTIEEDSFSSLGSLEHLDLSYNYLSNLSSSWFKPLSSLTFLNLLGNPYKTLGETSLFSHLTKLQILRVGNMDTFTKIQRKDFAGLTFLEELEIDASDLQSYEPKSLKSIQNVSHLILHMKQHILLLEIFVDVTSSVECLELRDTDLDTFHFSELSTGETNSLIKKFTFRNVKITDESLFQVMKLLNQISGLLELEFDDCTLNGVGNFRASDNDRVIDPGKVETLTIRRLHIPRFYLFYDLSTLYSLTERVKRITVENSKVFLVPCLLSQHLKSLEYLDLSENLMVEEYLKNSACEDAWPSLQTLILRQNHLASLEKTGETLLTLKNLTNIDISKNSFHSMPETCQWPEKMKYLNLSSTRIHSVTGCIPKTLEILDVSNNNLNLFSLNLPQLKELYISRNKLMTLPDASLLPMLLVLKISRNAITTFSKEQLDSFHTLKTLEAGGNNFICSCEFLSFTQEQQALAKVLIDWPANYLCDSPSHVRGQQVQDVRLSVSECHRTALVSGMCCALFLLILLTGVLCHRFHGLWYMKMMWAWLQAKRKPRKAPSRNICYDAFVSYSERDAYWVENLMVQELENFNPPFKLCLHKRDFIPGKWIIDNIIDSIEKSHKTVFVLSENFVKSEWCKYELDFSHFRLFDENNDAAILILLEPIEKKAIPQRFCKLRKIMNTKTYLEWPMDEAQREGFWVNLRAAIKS
# Excerpt: These experiments involve transfecting HEK293 cells (American Type Culture Collection, Manassas, Va.) with two plasmid DNAs. The first plasmid, pcDNA3.1/Hygro (Invitrogen), contains the human TLR-2 gene. The second plasmid, pNF-κB-luc (Stratagene, La Jolla, Calif.), encodes the NF-κB gene linked to a luciferase reporter gene whose product can be followed in vitro as a direct measure of NF-κB-activation. To prepare the DNA for transfection into the cells, Fugene6 (Roche, Basel Switzerland) transfecting reagent is diluted 1:6 in OPTI-MEM (Invitrogen, Carlsbad, Calif.) growth medium. Next, 75 ng of pNF-κB-luc and 300 ng of pcDNA3.1/Hygro DNA are added to the diluted Fugene6 and the mixture is incubated at 37° C. for 30 minutes. HEK293 cells at a concentration of 10^6 cells/ml are added to the DNA/Fugene6 mixture. […] The amount of luciferase activity resulting from incubation with the compounds is evaluated by removing the growth medium from the cells and replacing it with 100 μl of RLB lysis solution (Promega, Madison, Wis.). […] The luciferase activity of each cell culture is determined in a 25 μl aliquot of cell lysate in a Victor Luminometer (Perkin Elmer Life Sciences, Shelton, Conn.) according to the manufacturer's instructions. […]
Substance,intracellular localization in iDCs (confocal images) [1],uptake by iDCs over time (mean fluorescence intensity) [2],increase in luciferase activity compared with unstimulated cultures (human TLR-2) [fold]
FITC-Dextran,Localization of polymer in endocytic vacuoles,uptake is inhibited,
TNFα,,,22.5
